Series [1] relates to Candida albicans ATCC 10231.
Series [2] deals with Staphylococcus aureus ATCC 29213.
Series [3] deals with Human red blood cells (RBCs). In words: Hemolytic activity. The class given is cell-based.
The subject of series [4] is Escherichia coli ATCC 25922.
Description: Escherichia coli ATCC 25922 and P. aeruginosa ATCC 27853 were used as Gram-negative (-) and Staphylococcus aureus ATCC 29213 as Gram-positive (+) bacteria. Bacteria were grown overnight at 37° C. in Mueller-Hinton (MH) broth. This culture was reinoculated and incubated at 37° C. to reach the exponential phase of bacteria growth, i.e., a final bacterial suspension containing 10^5 to 5×10^5 colony-forming units (CFU)/ml. The concentration of cells was established by plating 100 μl of different dilutions of the culture solution (e.g., 10^-2, 10^-3 and 10^-4) onto solid agar plates.
Following an overnight incubation at 37° C., the CFU thus formed were counted on each agar plate. In 96-well tissue culture plates, as control blanks, eight wells per plate contained only medium, while as a positive growth control, eight other wells contained medium plus cells.
The plates were incubated overnight at 37° C., and the optical density (OD) determined at 620 nm after different times of incubation.
Series [5] has as its system Streptococcus sanguis ATCC 10556.
Description: Streptococcus sanguis ATCC 10556 (Gram-positive (+) bacteria present in tooth crevices) was grown overnight at 37° C. in Brain Heart Infusion (BHI) broth. This culture was reinoculated and incubated at 37° C. to reach the exponential phase of bacteria growth, i.e., a final bacterial suspension containing 10^5 to 5×10^5 colony-forming units (CFU)/ml. The concentration of cells was established by plating 100 μl of different dilutions of the culture solution (e.g., 10^-2, 10^-4) and 10^-4) onto solid agar plates. Following an overnight incubation at 37° C., the CFU thus formed were counted on each agar plate. In 96-well tissue culture plates, as control blanks, eight wells per plate contained only medium, while as a positive growth control, eight other wells contained medium plus cells. […] The plates were incubated overnight at 37° C., and the optical density (OD) determined at 620 nm after 20 to 24 hours incubation.
Setting [6] is: Tables 2-5, concentration necessary to inhibit 50% growth.
[7] abbreviates: Tables 15-17, lower parts (unnatural amino acids).
Setting [8] is: Tables 7-9, lower parts (unnatural amino acids).
Where [9] appears, read: Tables 3-5, lower parts (unnatural amino acids).
Where [10] appears, read: Tables 11-13, lower parts (unnatural amino acids).

Converted amounts (≈) assume the structure as drawn. Read-outs that look alike come from different tables or passages of the source. Square brackets hold non-standard residues; d marks the D form. Peptide text beside a SMILES is read from it. * marks the point of attachment. Fmoc = O=C(OCC1c2ccccc2-c2ccccc21)*

Regarding `NCCCC[C@H](NC(=O)OCC1c2ccccc2-c2ccccc21)C(=O)N[C@@H](Cc1c[nH]c2ccccc12)C(=O)N[C@@H](CCCCN)C(=O)N[C@H](Cc1ccccc1)C(N)=O` [(KFmoc)WKf-NH2] (Fmoc-KWK[dF]-NH2), the “IC50 against C. albicans” value in series [1] (Tables 14-17) is 133 µg/mL (≈ 160 µM). Also, in series [2] (Tables 6-9), the “IC50 against S. aureus” value came to 10 µg/mL (≈ 12.1 µM). In addition, in series [3] (Tables 18-21), the “HD50 (concentration necessary to lyse 50% of the cells)” value stood at 126 µg/mL. In addition, in series [4] (setting [6]), the “IC50 against E. coli” value is 38 µg/mL (≈ 45.8 µM). The “IC50 against S. sanguis” value in series [5] (Tables 10-13) is 6 µg/mL (≈ 7.24 µM).
On to (KFmoc)Wf(Hyp)-NH2, for which the “IC50 against C. albicans” value in series [1] (setting [7]) was determined as 95 μg/m. The “IC50 against S. aureus” value in series [2] (setting [8]) is recorded as 5 μg/m. In addition, the “HD50 (concentration necessary to lyse 50% of the cells)” value in series [3] (Table 20, lower part) is on record as 37 μg/m. Also, in series [4] (setting [9]), the “IC50 against E. coli” value stood at 44 μg/m. Also, the “IC50 against S. sanguis” value in series [5] (setting [10]) amounted to 8 μg/m.
Consider `C[C@@H](NC(=O)[C@H](Cc1ccc(O)cc1)NC(=O)[C@H](Cc1c[nH]c2ccccc12)NC(=O)[C@H](CCCCN)NC(=O)OCC1c2ccccc2-c2ccccc21)C(N)=O` [(KFmoc)WYa-NH2] (Fmoc-KWY[dA]-NH2), for which the “IC50 against C. albicans” value in series [1] (Tables 14-17) is 249 µg/mL (≈ 316 µM). For the same compound, in series [2] (Tables 6-9), the “IC50 against S. aureus” value was determined as 5 µg/mL (≈ 6.35 µM). For the same compound, the “HD50 (concentration necessary to lyse 50% of the cells)” value in series [3] (Tables 18-21) was found to be 74 µg/mL. Besides, the “IC50 against E. coli” value in series [4] (setting [6]) was determined as 87 µg/mL (≈ 110 µM). For the same compound, the “IC50 against S. sanguis” value in series [5] (Tables 10-13) is 5 µg/mL (≈ 6.35 µM).
With `CC(C)C[C@@H](NC(=O)[C@@H](Cc1ccccc1)NC(=O)[C@H](Cc1c[nH]c2ccccc12)NC(=O)[C@H](CCCCN)NC(=O)OCC1c2ccccc2-c2ccccc21)C(N)=O` [(KFmoc)Wfl-NH2] (Fmoc-KW[dF][dL]-NH2), the “IC50 against C. albicans” value in series [1] (Tables 14-17) came to 127 µg/mL (≈ 156 µM). Also, in series [2] (Tables 6-9), the “IC50 against S. aureus” value came out at 2 µg/mL (≈ 2.46 µM). Besides, in series [3] (Tables 18-21), the “HD50 (concentration necessary to lyse 50% of the cells)” value is 197 µg/mL. Moreover, the “IC50 against E. coli” value in series [4] (setting [6]) came to 28 µg/mL (≈ 34.4 µM). In addition, the “IC50 against S. sanguis” value in series [5] (Tables 10-13) was found to be 2 µg/mL (≈ 2.46 µM).
As to `NCCCC[C@H](NC(=O)OCC1c2ccccc2-c2ccccc21)C(=O)N[C@@H](Cc1c[nH]c2ccccc12)C(=O)N[C@@H](Cc1ccc(O)cc1)C(=O)N1CCC[C@@H]1C(N)=O` [(KFmoc)WYp-NH2] (Fmoc-KWY[dP]-NH2), in series [1] (Tables 14-17), the “IC50 against C. albicans” value was found to be 165 µg/mL (≈ 203 µM). The “IC50 against S. aureus” value in series [2] (Tables 6-9) is 5 µg/mL (≈ 6.14 µM). Besides, the “HD50 (concentration necessary to lyse 50% of the cells)” value in series [3] (Tables 18-21) is 76 µg/mL. The “IC50 against E. coli” value in series [4] (setting [6]) amounted to 84 µg/mL (≈ 103 µM). In addition, in series [5] (Tables 10-13), the “IC50 against S. sanguis” value amounted to 5 µg/mL (≈ 6.14 µM).
As for `NCCCC[C@H](NC(=O)OCC1c2ccccc2-c2ccccc21)C(=O)N[C@@H](Cc1c[nH]c2ccccc12)C(=O)N[C@@H](CCCCN)C(=O)N[C@H](CO)C(N)=O` [(KFmoc)WKs-NH2] (Fmoc-KWK[dS]-NH2), the “IC50 against C. albicans” value in series [1] (Tables 14-17) was 214 µg/mL (≈ 278 µM). For the same compound, the “IC50 against S. aureus” value in series [2] (Tables 6-9) was 6 µg/mL (≈ 7.8 µM). Also, the “HD50 (concentration necessary to lyse 50% of the cells)” value in series [3] (Tables 18-21) was determined as 296 µg/mL. The “IC50 against E. coli” value in series [4] (setting [6]) turned out to be 57 µg/mL (≈ 74.1 µM). Moreover, the “IC50 against S. sanguis” value in series [5] (Tables 10-13) was 6 µg/mL (≈ 7.8 µM).
With `NCCCC[C@H](NC(=O)OCC1c2ccccc2-c2ccccc21)C(=O)N[C@@H](Cc1c[nH]c2ccccc12)C(=O)N[C@@H](CCCCN)C(=O)N[C@H](Cc1c[nH]cn1)C(N)=O` [(KFmoc)WKh-NH2] (Fmoc-KWK[dH]-NH2), the “IC50 against C. albicans” value in series [1] (Tables 14-17) was 156 µg/mL (≈ 190 µM). The “IC50 against S. aureus” value in series [2] (Tables 6-9) came to 6 µg/mL (≈ 7.33 µM). In series [3] (Tables 18-21), the “HD50 (concentration necessary to lyse 50% of the cells)” value turned out to be 313 µg/mL. Further, in series [4] (setting [6]), the “IC50 against E. coli” value was 52 µg/mL (≈ 63.5 µM). The “IC50 against S. sanguis” value in series [5] (Tables 10-13) is 6 µg/mL (≈ 7.33 µM).
Regarding (KFmoc)WY(KCBZ)-NH2, the “IC50 against C. albicans” value in series [1] (setting [7]) is recorded as 309 μg/m. Moreover, in series [2] (setting [8]), the “IC50 against S. aureus” value amounted to 9 μg/m. The “IC50 against E. coli” value in series [4] (setting [9]) is recorded as 59 μg/m. Moreover, the “IC50 against S. sanguis” value in series [5] (setting [10]) came to 9 μg/m.
On to `N=C(N)NCCC[C@@H](NC(=O)[C@@H](Cc1ccccc1)NC(=O)[C@H](Cc1c[nH]c2ccccc12)NC(=O)[C@H](CCCCN)NC(=O)OCC1c2ccccc2-c2ccccc21)C(N)=O` [(KFmoc)Wfr-NH2] (Fmoc-KW[dF][dR]-NH2), for which the “IC50 against C. albicans” value in series [1] (Tables 14-17) amounted to 42 µg/mL (≈ 49 µM). Further, in series [2] (Tables 6-9), the “IC50 against S. aureus” value amounted to 2 µg/mL (≈ 2.33 µM). Besides, the “HD50 (concentration necessary to lyse 50% of the cells)” value in series [3] (Tables 18-21) was determined as 42 µg/mL. Moreover, the “IC50 against E. coli” value in series [4] (setting [6]) turned out to be 15 µg/mL (≈ 17.5 µM). Further, the “IC50 against S. sanguis” value in series [5] (Tables 10-13) amounted to 2 µg/mL (≈ 2.33 µM).
On to `NCCCC[C@H](NC(=O)OCC1c2ccccc2-c2ccccc21)C(=O)N[C@@H](Cc1c[nH]c2ccccc12)C(=O)N[C@@H](CCCCN)C(=O)N[C@H](CCC(N)=O)C(N)=O` [(KFmoc)WKq-NH2] (Fmoc-KWK[dQ]-NH2), for which the “IC50 against C. albicans” value in series [1] (Tables 14-17) is 291 µg/mL (≈ 359 µM). The “IC50 against S. aureus” value in series [2] (Tables 6-9) is 7 µg/mL (≈ 8.64 µM). For the same compound, the “HD50 (concentration necessary to lyse 50% of the cells)” value in series [3] (Tables 18-21) came to 483 µg/mL. The “IC50 against E. coli” value in series [4] (setting [6]) stood at 57 µg/mL (≈ 70.4 µM). The “IC50 against S. sanguis” value in series [5] (Tables 10-13) was determined as 7 µg/mL (≈ 8.64 µM).
On to `NCCCC[C@H](NC(=O)OCC1c2ccccc2-c2ccccc21)C(=O)N[C@@H](Cc1c[nH]c2ccccc12)C(=O)N[C@@H](CCCCN)C(=O)N[C@H](Cc1ccc(O)cc1)C(N)=O` [(KFmoc)WKy-NH2] (Fmoc-KWK[dY]-NH2), for which the “IC50 against C. albicans” value in series [1] (Tables 14-17) came out at 144 µg/mL (≈ 170 µM). Also, the “IC50 against S. aureus” value in series [2] (Tables 6-9) is 7 µg/mL (≈ 8.28 µM). For the same compound, the “HD50 (concentration necessary to lyse 50% of the cells)” value in series [3] (Tables 18-21) was 368 µg/mL. The “IC50 against E. coli” value in series [4] (setting [6]) was 39 µg/mL (≈ 46.2 µM). Moreover, the “IC50 against S. sanguis” value in series [5] (Tables 10-13) came to 8 µg/mL (≈ 9.47 µM).
Consider (KFmoc)Wf(dOrn)-NH2, for which the “IC50 against C. albicans” value in series [1] (setting [7]) was determined as 54 μg/m. Besides, the “IC50 against S. aureus” value in series [2] (setting [8]) is 4 μg/m. In addition, the “HD50 (concentration necessary to lyse 50% of the cells)” value in series [3] (Table 20, lower part) worked out at 42 μg/m. In addition, in series [4] (setting [9]), the “IC50 against E. coli” value was determined as 19 μg/m. Further, the “IC50 against S. sanguis” value in series [5] (setting [10]) was 4 μg/m.
For the compound `CC(C)[C@@H](NC(=O)[C@H](CCCCN)NC(=O)[C@H](Cc1c[nH]c2ccccc12)NC(=O)[C@H](CCCCN)NC(=O)OCC1c2ccccc2-c2ccccc21)C(N)=O` [(KFmoc)WKv-NH2] (Fmoc-KWK[dV]-NH2), in series [1] (Tables 14-17), the “IC50 against C. albicans” value stood at 187 µg/mL (≈ 239 µM). Also, the “IC50 against S. aureus” value in series [2] (Tables 6-9) was determined as 9 µg/mL (≈ 11.5 µM). For the same compound, the “HD50 (concentration necessary to lyse 50% of the cells)” value in series [3] (Tables 18-21) came out at 181 µg/mL. Moreover, the “IC50 against E. coli” value in series [4] (setting [6]) amounted to 54 µg/mL (≈ 69.1 µM). Moreover, the “IC50 against S. sanguis” value in series [5] (Tables 10-13) worked out at 10 µg/mL (≈ 12.8 µM).
Consider `NCCCC[C@H](NC(=O)OCC1c2ccccc2-c2ccccc21)C(=O)N[C@@H](Cc1c[nH]c2ccccc12)C(=O)N[C@@H](CCCCN)C(=O)N[C@H](CC(N)=O)C(N)=O` [(KFmoc)WKn-NH2] (Fmoc-KWK[dN]-NH2), for which the “IC50 against C. albicans” value in series [1] (Tables 14-17) came out at 233 µg/mL (≈ 293 µM). Also, the “IC50 against S. aureus” value in series [2] (Tables 6-9) was found to be 10 µg/mL (≈ 12.6 µM). For the same compound, the “IC50 against E. coli” value in series [4] (setting [6]) amounted to 47 µg/mL (≈ 59 µM). Besides, the “IC50 against S. sanguis” value in series [5] (Tables 10-13) was 8 µg/mL (≈ 10.1 µM).
(KFmoc)WK(Cys[ACM])-NH2: the “IC50 against C. albicans” value in series [1] (Tables 14-17) was determined as 303 µg/mL. In addition, the “IC50 against S. aureus” value in series [2] (Tables 6-9) was 11 µg/mL. In addition, in series [4] (setting [6]), the “IC50 against E. coli” value came out at 49 µg/mL. In addition, the “IC50 against S. sanguis” value in series [5] (Tables 10-13) worked out at 11 µg/mL.
As for (KFmoc)ci(Thiopro)-NH2, the “IC50 against C. albicans” value in series [1] (setting [7]) is given as 197 μg/m. Also, the “IC50 against S. aureus” value in series [2] (setting [8]) was found to be 9 μg/m. Further, the “IC50 against E. coli” value in series [4] (setting [9]) is 25 μg/m. Further, the “IC50 against S. sanguis” value in series [5] (setting [10]) stood at 6 μg/m.
(KFmoc)WK(Hyp)-NH2: the “IC50 against C. albicans” value in series [1] (Tables 14-17) worked out at 370 µg/mL. In addition, the “IC50 against S. aureus” value in series [2] (Tables 6-9) was 10 µg/mL. The “IC50 against E. coli” value in series [4] (setting [6]) stood at 62 µg/mL. Also, the “IC50 against S. sanguis” value in series [5] (Tables 10-13) stood at 10 µg/mL.
